The values below come from patent US20070155806A1 (The University of Tokyo, priority 2005, published 2007).

Type in all cases: biochemical
Experiment [1] deals with T1, luciferase (firefly) (Photinus pyralis, UniProt P08659). Description: Luminescence characteristics with firefly luciferase (Example 3). As to conditions: for relative intensity: calculated on the basis of the intensity obtained for aminoluciferin; for λmax(nm): luminescence peak, HEPES pH 7.7, ATP, Mg, CoA; for λmax(nm) / initial intensity: 12 μmol/L substrate, 20 μg/mL luciferase; for initial intensity: luminescence, HEPES pH 7.7; for peak luminescence wavelength shift to longer wavelength side compared with luciferin: versus luciferin. As for the experimental part: The measurement was performed by using Fluorescence Spectrophotometer F-4500 (Hitachi).

The target in experiment [2] is T1, luciferase (firefly). Description: Measurement of luminescence after reaction with luciferase (Example 5, FIG. 2). As to conditions: 12 μmol/L substrate, 40 μg/mL luciferase. The method, then: Luminescence spectra of Compounds 19 and 20 were measured.
The target in experiment [3] is T1, luciferase (firefly). Description: HPLC analysis of luciferase reaction product with or without ATP (Example 6, FIG. 3). Particulars: system added with ATP vs without ATP. The method, then:
For 6-(4-aminophenethyl)-aminoluciferin (Compound 21), the enzymatic reaction was also performed in a system without ATP (all the other conditions were the same as Example 5), along with the aforementioned enzymatic reaction in Example 5. After these two enzymatic reactions, each enzymatic reaction mixture was collected and filtered by using a centrifugal separator to remove the enzyme. The solvent was evaporated by lyophilization to obtain a residue after the enzymatic reaction. A small amount of the residue was dissolved in purified water and methanol, then analyzed by HPLC. The results are shown in FIG. 3. • Analysis conditions • Elution solvent: A=H2O/0.1% trifluoroacetic acid, B=80% acetonitrile/20% • water/0.1% trifluoroacetic acid, A/B=80/20 to 20/80 (20 minutes) • Detection: UV-vis (400 nm) • Column: ODS-3, 4.6×250 mm • Flow rate: 1 mL/min

T1 sequence (P08659 whole entry, species assumed): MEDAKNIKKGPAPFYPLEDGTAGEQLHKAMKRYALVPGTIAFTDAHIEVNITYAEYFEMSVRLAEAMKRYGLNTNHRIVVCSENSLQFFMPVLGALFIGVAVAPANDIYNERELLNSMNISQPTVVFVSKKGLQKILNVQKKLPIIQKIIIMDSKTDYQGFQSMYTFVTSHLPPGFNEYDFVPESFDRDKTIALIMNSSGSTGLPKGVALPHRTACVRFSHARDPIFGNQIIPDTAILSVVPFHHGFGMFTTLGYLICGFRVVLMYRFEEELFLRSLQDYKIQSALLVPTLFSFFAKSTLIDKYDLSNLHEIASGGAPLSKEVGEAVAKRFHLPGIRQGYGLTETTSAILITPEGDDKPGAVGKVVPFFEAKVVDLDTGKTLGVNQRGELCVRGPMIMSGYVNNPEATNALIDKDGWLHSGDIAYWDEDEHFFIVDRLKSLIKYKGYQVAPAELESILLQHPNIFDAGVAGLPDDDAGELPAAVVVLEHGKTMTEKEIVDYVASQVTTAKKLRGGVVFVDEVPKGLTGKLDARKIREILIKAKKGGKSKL

As for `CNc1ccc2nc(C3=NC(C(=O)O)CS3)sc2c1` (stereo not shown) [Compound 10, N-methylaminoluciferin], on luciferase (firefly) [1], the relative intensity is given as 66.5, the “λmax(nm)” value came out at 624 nm, the initial intensity worked out at 1360 and the “peak luminescence wavelength shift to longer wavelength side compared with luciferin” value (from here on “peak luminescence wavelength shift”) is recorded as 49 nm.

Consider `CN(C)c1ccc2nc(C3=NC(C(=O)O)CS3)sc2c1` (stereo not shown) [Compound 11, N,N-dimethylaminoluciferin], for which, on luciferase (firefly) [1], the relative intensity was 44.1, the “λmax(nm)” value was found to be 641 nm, the initial intensity was found to be 901 and the “peak luminescence wavelength shift” value worked out at 66 nm.

With `O=C(O)C1CSC(c2nc3ccc(NCc4ccccc4)cc3s2)=N1` (stereo not shown) [Compound 12, N-benzylaminoluciferin], at luciferase (firefly) [1], the relative intensity was 5.2, the “λmax(nm)” value is given as 623 nm, the initial intensity worked out at 106 and the “peak luminescence wavelength shift” value is reported as 48 nm.

For the compound `O=C(O)C1CSC(c2nc3ccc(NCCc4ccccc4)cc3s2)=N1` (stereo not shown) [Compound 13, N-phenethylaminoaminoluciferin], at luciferase (firefly) [1], the relative intensity is reported as 8.6, the “λmax(nm)” value is reported as 611 nm and the “peak luminescence wavelength shift” value stood at 36 nm. The compound also returned an initial intensity at luciferase (firefly) [1] (listed as N-phenethylaminoluciferin) of 175.

`O=C(O)C1CSC(c2nc3ccc(NCCCc4ccccc4)cc3s2)=N1` (stereo not shown) [Compound 14, N-phenylpropylaminoluciferin]: on luciferase (firefly) [1], the relative intensity is given as 48.0, the “λmax(nm)” value came to 611 nm, the initial intensity stood at 980 and the “peak luminescence wavelength shift” value was determined as 36 nm.

On to `O=C(Nc1ccc(CCNc2ccc3nc(C4=NC(C(=O)O)CS4)sc3c2)cc1)OCc1ccccc1` (stereo not shown) [Compound 19, 6-(4′-benzyloxycarbonylamidophenethyl)-aminoluciferin], for which, on luciferase (firefly) [2], the luminescent property result is given as “luminescence was observed”. In addition, on luciferase (firefly) [2] (HEPES pH 7.7), the luminescence peak result is recorded as “about 610 nm”.

Turning to `Nc1ccc(CCNc2ccc3nc(C4=N[C@@H](C(=O)O)CS4)sc3c2)cc1` [Compound 21, 6-(4′-aminophenethyl)-aminoluciferin], the “reaction as luciferase substrate (elution peak of compound after enzymatic reaction)” value on luciferase (firefly) [3] is reported as “reacted as a luciferase substrate”. For the same compound, the luminescent property result at luciferase (firefly) [2] is “completely lost the luminescent property”.

For the compound `Nc1ccc2nc(C3=N[C@@H](C(=O)O)CS3)sc2c1` [aminoluciferin, reference compound], at luciferase (firefly) [1], the relative intensity is recorded as 100.0, the “λmax(nm)” value worked out at 609 nm, the initial intensity worked out at 2044 and the “peak luminescence wavelength shift” value is on record as 34 nm.
